Data: patent US20190177279A1, “CARBOXYLIC ACID AROMATIC 1,2-CYCLOPROPYLAMIDES” (Bayer Pharma Aktiengesellschaft, priority 2017, published 2019)
Read-outs that look alike come from different tables or passages of the source. Blank lines part the entries; values can stand above or below the molecule they belong to.

How the values were obtained:
[1] = prior art, Bioorg Med Chem Lett 2010; cited from earlier work
[2] = prior art, Bioorg Med Chem Lett 2010; cited from earlier work; remark: listed apart in the source
[3] = prior art, Bioorg Med Chem Lett 2010; cited from earlier work; remark: listed apart in the source
[4] = prior art, Bioorg Med Chem Lett 2010; cited from earlier work; remark: listed apart in the source
human B1 receptor = molecular target: T1, human B1 receptor (Homo sapiens, UniProt P46663); assay: Calcium flux assay (FLIPR) with recombinant CHO-K1 cells expressing human B1 receptor; format: cell-based; details: agonist Lys-(Des-Arg)-Bradykinin
T1 construct: host or cells: CHO-K1
T1 sequence (P46663 1-353): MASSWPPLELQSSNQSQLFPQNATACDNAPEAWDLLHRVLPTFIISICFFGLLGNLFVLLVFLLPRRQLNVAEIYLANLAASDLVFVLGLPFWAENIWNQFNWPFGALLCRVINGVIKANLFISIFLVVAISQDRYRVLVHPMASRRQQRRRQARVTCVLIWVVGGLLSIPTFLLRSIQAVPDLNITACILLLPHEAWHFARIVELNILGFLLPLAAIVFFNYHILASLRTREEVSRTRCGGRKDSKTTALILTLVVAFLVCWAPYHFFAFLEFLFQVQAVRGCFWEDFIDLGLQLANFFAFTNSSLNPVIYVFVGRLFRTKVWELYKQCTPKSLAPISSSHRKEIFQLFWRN
Experimental: The potency to inhibit the Bradykinin B1 receptors was determined for the example compounds of this invention in a cell-based fluorescent calcium-mobilisation assay. The assay measures the ability of example compounds to inhibit Bradykinin B1 receptor agonist-induced increase of intracellular free Ca^2+ in the cell line expressing B1 receptor. Specifically, calcium indicator—loaded cells are pre-incubated in the absence or presence of different concentrations of example compounds followed by the stimulation with a selective B1 receptor agonist peptide. The change of the intracellular Ca^2+ concentration is monitored with a fluorescent plate reader FLIPR (Molecular Devices).
Calcium flux Assay (FLIPR) with recombinant cells for Bradykinin B1 receptor antagonist, either in the presence (hB1 IC50) or absence (hB1 free IC50) of 0.1% BSA in assay buffer
CHO-K1 cell line expressing human B1 receptor was purchased from Euroscreen (Gosselies, Belgium, with reference name hB1-D1). The cells were grown in Nutrient Mixture Ham's F12 (Sigma) containing 10% Foetal bovine serum (Sigma) and 400 μg/mL G418 (Sigma), 5 μg/mL puromycin (Sigma).
For the calcium flux assay, 80% confluent cells were detached from the culture vessels with Versene (Gibco), and seeded into 384-well plates (Cell binding Surface; Corning, N.Y.; #3683) at a density of 15,000 cells per well. Cells were seeded in a volume of 50 μL in medium without antibiotics and incubated overnight in a humidified atmosphere with 5% CO2 at 37° C. […] The calcium indicator loaded cells were incubated at 37° C. for 2 hrs. Extracellular dye was then removed and each well was filled with 45 μL of assay buffer. Cell plates were kept in dark until used. Example compounds were assayed at 8 concentrations in triplicate. Serial 10-fold dilutions in 100% DMSO were made at a 100-times higher concentration than the final concentration, and then diluted 1:10 in assay buffer. 5 μL of each diluted compound was added to the well of cell plates (yielding final concentration with 1% DMSO), and incubated for 30 min at 28° C. before the addition of B1 receptor agonist on the FLIPR instrument.
Agonist plates contained the agonist Lys-(Des-Arg)-Bradykinin (Bachem, Brackley) at 3.5×EC90 in assay buffer with 1% DMSO. The addition of agonist 20 μl per well to the assay plate was carried out on the FLIPR instrument while continuously monitoring Ca^2+-dependent fluorescence at 538 nm. A peptide antagonist Lys-(Des-Arg-Leu)-Bradykinin (Bachem, Brackley) at 20 µM was used to determine the full inhibition as control.
Peak fluorescence was used to determine the response to agonist obtained at each concentration of example compound by the following equation:
% Response=100*(RFU(example compound)−RFU(control)/(RFU(DMSO)−RFU(control)) • Control=full inhibition by the peptide antagonist Lys-(Des-Arg-Leu)-Bradykinin at 20 μM
The response values were plotted against the logarithm of the compound concentrations. The compounds were tested in triplicates per plate and mean values were plotted in Excel XLfit to determine IC50 values, percentage of maximal inhibition and the Hill slopes.

IL-8 secretion = assay: Bradykinin B1 receptor agonist-induced secretion of IL-8 in human IMR-90 cells; format: cell-based; details: 0.1 μM Lys-[Des-Arg9]Bradykinin and 0.1 μM Sar-[D-Phe8]-des-Arg9-Bradykinin, 5 hours
Excerpt: (§1) Inhibitory Activity on Bradykinin B1 Receptor Agonist-Induced Secretion of IL-6 and IL-8 in Human IMR-90 Cells
(§2) The effect of the compound examples on secretion of the cytokine IL-6 and IL-8 was investigated in the human foetal lung fibroblast IMR-90 cell line. Here the induction of the cytokine secretion was induced by the Bradykinin B1 receptor agonists Lys-[Des-Arg9]Bradykinin (CAS 71800-36-7, Tocris Bioscience) and Sar-[D-Phe8]-des-Arg9-Bradykinin (CAS 126959-88-4, Tocris Bioscience) leading to the activation of the Bradykinin B1-driven signalling pathway. […]
(§3) IMR-90 cells were cultured in Eagle's Minimum Essential Medium (EMEM) containing 2 mM L-glutamine, 1 g/L glucose, 1.5 g/L NaHCO3, 1 mM sodium pyruvate and non-essential amino acids (ATCC, 30-2003™) supplemented with 10% FBS (Biochrom, 50615) and 50 U/mL Penicillin, 50 μg/mL Streptomycin (PAA, P11-010). […] The compound examples were serially diluted in 100% DMSO and evaluated at 8 different concentrations within the range of 3 nM and 10 μM and a final DMSO concentration of 0.4%. […] The amount of IL-6 and IL-8 in the supernatant was determined using the Human ProInflammatory Panel II (4-Plex) (MSD, K15025B) according to manufacturer's instruction. […] The cell viability was measured using the CellTiter-Glo Luminescent Assay (Promega, G7571) following the manufacturers protocol. […]

IL-6 secretion = assay: Bradykinin B1 receptor agonist-induced secretion of IL-6 in human IMR-90 cells; format: cell-based; details: 0.1 μM Lys-[Des-Arg9]Bradykinin and 0.1 μM Sar-[D-Phe8]-des-Arg9-Bradykinin, 5 hours
Excerpt: as §1, §2, §3

stimulated IMR-90 cells = assay: Cell viability, CellTiter-Glo Luminescent Assay; format: cell-based, human
Experimental: IMR-90 cells were cultured in Eagle's Minimum Essential Medium (EMEM) containing 2 mM L-glutamine, 1 g/L glucose, 1.5 g/L NaHCO3, 1 mM sodium pyruvate and non-essential amino acids (ATCC, 30-2003™) supplemented with 10% FBS (Biochrom, 50615) and 50 U/mL Penicillin, 50 μg/mL Streptomycin (PAA, P11-010). The assay was performed in EMEM and a cell density of […] IMR-90 cells/96-well. The compound examples were serially diluted in 100% DMSO and evaluated at 8 different concentrations within the range of 3 nM and 10 μM and a final DMSO concentration of 0.4%. The IMR-90 cells were incubated with the respective concentration of the compound for 30 min. […] The amount of IL-6 and IL-8 in the supernatant was determined using the Human ProInflammatory Panel II (4-Plex) (MSD, K15025B) according to manufacturer's instruction. […] Plates were washed three times with phosphate-buffered saline (PBS; 137 mM NaCl, 2.7 mM KCl, 6.5 mM Na2HP04, 1.7 mM KH2P04) containing 0.05% Tween-20 (Bio-Rad, 161-0781) and electrochemiluminescence detected using the MSD Sector Imager 6000 plate reader. The cell viability was measured using the CellTiter-Glo Luminescent Assay (Promega, G7571) following the manufacturers protocol. […] After incubation and shaking for 10 minutes luminescent signal was measured which was proportional to the amount of ATP present. […]

[5] = molecular target: T2, native human B1 receptors (Homo sapiens, UniProt P46663); assay: Calcium flux assay (FLIPR) with IMR-90 human foetal lung fibroblasts after IL-1 induction; format: cell-based; details: IMR-90 fibroblasts induced with human IL-1; 0.1% BSA in assay buffer; agonist Lys-(Des-Arg)-Bradykinin at EC90; read-out: hB1 IC50 IMR90
T2 construct: which express native human B1 receptors after induction with human IL-1; Coriell Institute; host or cells: IMR-90 human foetal lung fibroblasts, induced with human IL-1
T2 sequence (P46663 1-353): T1 sequence (P46663 1-353)
Experimental: Calcium Flux Assay (FLIPR) with Human Fibroblasts for Bradykinin B1 Receptor Antagonist (hB1 IMR-90 IC50)
The Calcium flux Assay was carried out utilising IMR-90 human foetal lung fibroblasts (American Type Culture Collection, Rockville, Md.; and Coriell Institute, Camden, N.J.), which express native human B1 receptors after induction with human IL-1[…].
The fibroblasts were cultured in complete growth media comprised of Dulbecco's modified Eagle's medium (DMEM; Sigma) containing 10% foetal bovine serum, 4 mM L-glutamine, and 1% nonessential amino acids. The cells were maintained in a humidified atmosphere with 5% CO2 at 37° C. and were sub-cultured at a ratio of 1:3, every other day.
For the assay, IMR-90 fibroblasts were harvested using TrypLE Express (GIBCO/Invitrogen) and seeded into 384-well plates (Corning Cellbinding Surface, Cat. 3683) at a density of 15000 cells/well. The following day, cells were treated with 0.35 ng/mL human IL-1[…] in 10% FBS/MEM for 3 h to up-regulate B1 receptors. Induced cells were loaded with fluorescent calcium indicator by incubation with 2.5 μM Fluo-4/AM (Invitrogen) at 37° C., 5% CO2 for 2 h in the presence of 2.5 mM probenecid in 1% FBS/MEM. Extracellular dye was removed by washing with assay buffer (2.5 mM probenecid and 0.1% BSA in 20 mM HEPES/HBSS without bicarbonate or phenol red, pH 7.5). Example compounds were assayed at 8 concentrations in triplicate. After addition of example compounds to the cell plate and incubation for 30 min at 28° C., the addition of B1 agonist Lys-(Des-Arg)-Bradykinin (Bachem, Brackley) at a final concentration of EC90 was carried out on the FLIPR instrument while continuously monitoring Ca^2+-dependent fluorescence at 538 nm. A peptide antagonist Lys-(Des-Arg-Leu)-Bradykinin (Bachem, Brackley) at 20 μM was used to determine the full inhibition as control. IC50 values were determined by the same way described for the FLIPR assay with recombinant cells.

[6] = due to metabolic liability; prior art; cited from earlier work
[7] = absence of 0.1% BSA in assay buffer, read-out: hB1 free IC50

SMILES: C[C@@H]1CC[C@H](C)N1C(=O)c1ccc([C@@H](C)NC(=O)C2(NC(=O)c3cc(F)cc(C(F)(F)F)c3)CC2)c(F)c1
human metabolic stability [1]: poor
aqueous solubility [2]: reasonable
pharmacokinetic profile in rat [3]: reasonable
penetration profile [4]: acceptable

IC50 (human B1 receptor; [7]): 207 nM
IC50 (human B1 receptor; presence of 0.1% BSA in assay buffer, read-out: hB1 IC50): 65 nM
IC50 (IL-8 secretion): 509 nM
IC50 (IL-6 secretion): 99 nM
SMILES: O=C(O)c1cc(NC(=O)C2CC2c2cccc(Cl)c2)ccc1-c1cnn(C2CCC2)c1 (racemic) [Example 1, 5-({[2-(3-chlorophenyl)cyclopropyl]carbonyl}amino)-2-(1-cyclobutyl-1H-pyrazol-4-yl)benzoic acid]
effect on the cell viability (stimulated IMR-90 cells): no effect

IC50 (human B1 receptor; [7]): 309 nM
IC50 [5]: 529 nM
SMILES: CCC(F)(F)c1ccc(-c2ccc(NC(=O)C3CC3c3ccc(Cl)cc3)cc2C(=O)O)cn1 (racemic) [Example 23, 5-({[2-(4-Chlorophenyl)cyclopropyl]carbonyl}amino)-2-[6-(1,1-difluoropropyl)pyridin-3-yl]benzoic acid]

IC50 (human B1 receptor; [7]): 1260 nM
IC50 [5]: 4730 nM
SMILES: O=C(O)c1cc(NC(=O)C2CC2c2ccc(Cl)cc2)c(F)cc1-c1ccc(C(F)(F)F)nc1 (racemic) [Example 25, 5-({[2-(4-chlorophenyl)cyclopropyl]carbonyl}amino)-4-fluoro-2-[6-(trifluoromethyl)pyridin-3-yl]benzoic acid]

SMILES: C[C@@H](NC(=O)C1(NC(=O)C(F)(F)F)CC1)c1ccc(-c2cccc(Cl)c2C(=O)O)cc1F [MK-0686]
pharmacokinetic profile [6]: suboptimal

IC50 (human B1 receptor; [7]): 2420 nM
IC50 [5]: 12000 nM
SMILES: Cc1ccc(-c2ccc(NC(=O)C3CC3c3ccc(Cl)cc3)cc2C(=O)O)cn1 (racemic) [Example 15, 5-({[2-(4-chlorophenyl)cyclopropyl]carbonyl}amino)-2-(6-methylpyridin-3-yl)benzoic acid]
